≈ marks a conversion by molar mass, not a printed value.
Key:
Staphylococcus aureus [1] = experiment: Antibacterial activity against Staphylococcus aureus TISTR 1466 by Mueller-Hinton broth based two-fold serial dilution method; type: functional
Staphylococcus aureus [2] = experiment: Antibacterial activity against methicillin resistant Staphylococcus aureus SK1 by Mueller-Hinton broth based two-fold serial dilution method; type: functional
Bacillus subtilis [3] = experiment: Antibacterial activity against Bacillus subtilis TISTR 008 by Mueller-Hinton broth based two-fold serial dilution method; type: functional
Micrococcus luteus [4] = experiment: Antibacterial activity against Micrococcus luteus TISTR 884 by Mueller-Hinton broth based two-fold serial dilution method; type: functional
[5] = test system: Staphylococcus epidermidis; experiment: Antibacterial activity against Staphylococcus epidermis ATCC 12228 by Mueller-Hinton broth based two-fold serial dilution method; type: functional
Bacillus cereus [6] = experiment: Antibacterial activity against Bacillus cereus TISTR 688 by Mueller-Hinton broth based two-fold serial dilution method; type: functional
Salmonella typhimurium = experiment: Antibacterial activity against Salmonella typhimurium TISTR 292 by Mueller-Hinton broth based two-fold serial dilution method; type: functional, Salmonella enterica subsp. enterica serovar Typhimurium; conditions: Salmonella enterica
Staphylococcus aureus [7] = experiment: Antibacterial activity against methicillin resistant Staphylococcus aureus by liquid dilution method; type: functional
Staphylococcus aureus [8] = experiment: Antibacterial activity against Staphylococcus aureus NIHJ 209p; type: functional
Escherichia coli = experiment: Antibacterial activity against Escherichia coli NIHJ K 12; type: functional
Bacillus subtilis [9] = experiment: Antibacterial activity against Bacillus subtilis incubated for 8 to 12 hrs by Alamar blue reagent based microdilution broth method; type: functional; conditions: time 8-12 hrs
Staphylococcus aureus [10] = experiment: Antibacterial activity against Staphylococcus aureus TISTR 517 incubated for 8 to 12 hrs by Alamar blue reagent based microdilution broth method; type: functional; conditions: time 8-12 hrs
Pseudomonas aeruginosa = experiment: Antibacterial activity against Pseudomonas aeruginosa incubated for 8 to 12 hrs by Alamar blue reagent based microdilution broth method; type: functional; conditions: time 8-12 hrs
Enterococcus faecalis [11] = experiment: Antibacterial activity against Streptococcus faecalis incubated for 8 to 12 hrs by Alamar blue reagent based microdilution broth method; type: functional; conditions: time 8-12 hrs
Salmonella typhi = experiment: Antibacterial activity against Salmonella typhi incubated for 8 to 12 hrs by Alamar blue reagent based microdilution broth method; type: functional, Salmonella enterica subsp. enterica serovar Typhi; conditions: Salmonella enterica; time 8-12 hrs
Bacillus cereus [12] = experiment: Antibacterial activity against Bacillus cereus TISTR 688 incubated for 16 to 18 hrs by Mueller-Hinton broth based two-fold serial dilution method; type: functional; conditions: time 16-18 hrs
[13] = Lipophilicity, logP of the compound; type: physicochemical; conditions: octanol/water
[14] = test system: Staphylococcus epidermidis; experiment: Antibacterial activity against Staphylococcus epidermidis ATCC 12228 incubated for 16 to 18 hrs by Mueller-Hinton broth based two-fold serial dilution method
Enterococcus faecalis [15] = experiment: Antibacterial activity against Enterococcus faecalis JCM 7783 incubated for 20 hrs by Mueller-Hinton broth based agar based dilution method; type: functional
Enterococcus faecalis [16] = experiment: Antibacterial activity against Enterococcus faecalis JU 1856 incubated for 20 hrs by Mueller-Hinton broth based agar based dilution method; type: functional
Enterococcus faecalis [17] = experiment: Antibacterial activity against Enterococcus faecalis JU 1782 incubated for 20 hrs by Mueller-Hinton broth based agar based dilution method; type: functional
Bacillus subtilis [18] = experiment: Antibacterial activity against Bacillus subtilis PCI 219 incubated for 20 hrs by Mueller-Hinton broth based agar based dilution method; type: functional
Staphylococcus aureus [19] = experiment: Antibacterial activity against methicillin sensitive Staphylococcus aureus JCM 2874 incubated for 20 hrs by Mueller-Hinton broth based agar based dilution method; type: functional
Staphylococcus aureus [20] = experiment: Antibacterial activity against methicillin resistant Staphylococcus aureus incubated for 20 hrs by Mueller-Hinton broth based agar based dilution method; type: functional
Micrococcus luteus [21] = experiment: Antibacterial activity against Micrococcus luteus ATCC 9341 incubated for 20 hrs by Mueller-Hinton broth based agar based dilution method; type: functional
Staphylococcus aureus [22] = experiment: Antibacterial activity against methicillin resistant Staphylococcus aureus; type: functional
Staphylococcus aureus [23] = experiment: Antibacterial activity against Staphylococcus aureus; type: functional

COc1c(O)cc2oc3cc(O)c(CC=C(C)C)c(O)c3c(=O)c2c1C/C=C(\C)CCC=C(C)C [COWANIN]
MIC (Staphylococcus aureus [1]): 32 µg/mL (≈ 66.9 µM) | MIC (Staphylococcus aureus [2]): 2 µg/mL (≈ 4.18 µM) | MIC (Bacillus subtilis [3]): 4 µg/mL (≈ 8.36 µM) | MIC (Micrococcus luteus [4]): 4 µg/mL (≈ 8.36 µM) | MIC [5]: 2 µg/mL (≈ 4.18 µM) | MIC (Bacillus cereus [6]): 32 µg/mL (≈ 66.9 µM) | MIC (Salmonella typhimurium): 64 µg/mL (≈ 134 µM)

C=CC(C)(C)c1cc(O)c2oc3c(O)c(O)ccc3c(=O)c2c1O
MIC (Staphylococcus aureus [7]): 25 µg/mL (≈ 76.1 µM) | MIC (Staphylococcus aureus [8]): 12.5 µg/mL (≈ 38.1 µM) | MIC (Escherichia coli): 25 µg/mL (≈ 76.1 µM)

CC(C)=CCc1c2c(c(O)c3c(=O)c4ccc(O)c(O)c4oc13)C=CC(C)(C)O2
MIC (Bacillus subtilis [9]): 1.1 µg/mL (≈ 2.79 µM) | MIC (Staphylococcus aureus [10]): 1.1 µg/mL (≈ 2.79 µM) | MIC (Pseudomonas aeruginosa): 9.3 µg/mL (≈ 23.6 µM) | MIC (Enterococcus faecalis [11]): 1.1 µg/mL (≈ 2.79 µM) | MIC (Salmonella typhi): 1.1 µg/mL (≈ 2.79 µM)

COc1cc2c(=O)c3c(O)cccc3oc2c(O)c1OC
MIC (Bacillus cereus [12]): 16 µg/mL (≈ 55.5 µM) | logP [13]: 2.09 | MIC [14]: 16 µg/mL (≈ 55.5 µM)

CC(C)=CCc1c(O)cc(O)c2c(=O)c3c(CC=C(C)C)c(O)ccc3oc12 [GERONTOXANTHONE H]
MIC (Enterococcus faecalis [15]): 1.56 µg/mL (≈ 4.1 µM) | MIC (Enterococcus faecalis [16]): 1.56 µg/mL (≈ 4.1 µM) | MIC (Enterococcus faecalis [17]): 1.56 µg/mL (≈ 4.1 µM) | MIC (Bacillus subtilis [18]): 1.56 µg/mL (≈ 4.1 µM) | MIC (Staphylococcus aureus [19]): 1.56 µg/mL (≈ 4.1 µM) | MIC (Staphylococcus aureus [20]): 1.56 µg/mL (≈ 4.1 µM) | MIC (Micrococcus luteus [21]): 1.56 µg/mL (≈ 4.1 µM)

C=CC(C)(C)c1c(O)cc2oc3c(O)c4c(cc3c(=O)c2c1O)C=CC(C)(C)O4 [GERONTOXANTHONE B]
MIC (Bacillus subtilis [18]): > 25 µg/mL | MIC (Staphylococcus aureus [20]): 25 µg/mL (≈ 63.4 µM) | MIC (Micrococcus luteus [21]): 12.5 µg/mL (≈ 31.7 µM)

CC(C)=CCc1c(O)cc2oc3c(c(=O)c2c1O)C[C@H](CC=C(C)C)C(=O)[C@@]3(O)CC=C(C)C
MIC (Staphylococcus aureus [1]): 2 µg/mL (≈ 4.29 µM) | MIC (Staphylococcus aureus [2]): 2 µg/mL (≈ 4.29 µM)

C=CC(C)(C)c1cc(O)c2oc3c(O)cccc3c(=O)c2c1O
MIC (Staphylococcus aureus [22]): 3.13 µg/mL (≈ 10 µM) | MIC (Staphylococcus aureus [23]): 6.25 µg/mL (≈ 20 µM)

From ChEMBL document CHEMBL5223092, “Antibacterial activities of plant-derived xanthones” (RSC Med Chem, 2022)
